Assay results taken from paper PMC5391603, “Identification and functional characterisation of a Schistosoma japonicum insulin-like peptide” (Parasites & Vectors, 2017).
Entries after “also recorded” stand apart in the source; their conditions may differ.

Columns and labels:
[1] = target: recombinant Schistosoma japonicum insulin-like peptide, C-terminal fragment T31-S130 (S. japonicum); assay: BLI; Octet RED, 25 °C; biotinylated rSjILP (150 ng/μl) immobilised on streptavidin biosensors, exposed to rSjLD1 or rSjLD2 (7, 14, 28, 56, 112 ng/μl); kinetic buffer (1 mM phosphate, 15 mM NaCl, 0.1 mg/ml BSA, 0.002% Tween-20); association 1000 s, dissociation 1000 s; BSA as reference
[2] = ADP assay (ADP hydrolysis/consumption by proteins); type: biochemical; conditions: ADP assay kit, protein 0.13 mg/ml, 20 min incubation, ADP 0, 5, 15, 30 μM
Protocol: To measure the level of hydrolysis of ADP by the schistosome ILP, ADP assay kits (Sigma-Aldrich) were used to measure ADP levels of recombinant schistosome ILPs after their interaction with different concentrations of ADP. ADP levels in various proteins (0.13 mg/ml) were determined following their incubation for 20 min with different concentrations of ADP (0, 5, 15, 30 μM).

[3] = system: Erk (p44/42 MAPK) in adult S. japonicum; assay: Erk phosphorylation in adult worms, Western blot with anti-phospho-P44/42 MAPK (Erk1/2) antibody; type: cell-based
Source text: It had been shown previously that an anti-phospho-P44/42 MAPK (Erk1/2) antibody could recognize exclusively activated (phosphorylated) forms of this kinase in S. mansoni because of the high sequence homology in key phosphorylation sites between kinases from schistosomes and humans, and because phosphorylation at these sites is vital for enzyme activation. […] Worms from the different groups were then collected for SWAP extraction which was undertaken in the presence of HALT protease/phosphatase inhibitor cocktail (ThermoFisher, Waltham, USA). SDS-PAGE/Western blotting was carried out as described above using the Odyssey system. […] An anti-actin antibody (Sigma-Aldrich) (1:150) was used to assess protein-loading differences. OdysseyClassic 3.0 software was used for Western blot quantification.

[4] = system: S. japonicum IRs (SjIR1 and SjIR2); design: method as in PMID 25961574; conditions: ref [18]; cited from earlier work
[5] = system: adult S. japonicum; conditions: in vitro, ref [15], cited from earlier work
Source text: The life-cycle of schistosomes involves snail intermediate hosts and definitive mammalian hosts including humans, in whom schistosomes can survive for decades. Remarkably, the highly sophisticated relationship between schistosomes and their mammalian hosts seems to involve exploitation by these parasites of host endocrine and immune signals. By binding many ligands including hormones, growth factors, cytokines, receptor tyrosine kinases (RTKs), which are high-affinity cell surface receptors, can be activated to trigger different signalling cellular cascades for the regulation ...

[6] = target: T1, recombinant ligand domain of S. japonicum insulin receptor 1 (S. japonicum, biotin (NHS-PEO4-biotin kit) where it was immobilised on streptavidin biosensors); assay: BLI
T1 chain: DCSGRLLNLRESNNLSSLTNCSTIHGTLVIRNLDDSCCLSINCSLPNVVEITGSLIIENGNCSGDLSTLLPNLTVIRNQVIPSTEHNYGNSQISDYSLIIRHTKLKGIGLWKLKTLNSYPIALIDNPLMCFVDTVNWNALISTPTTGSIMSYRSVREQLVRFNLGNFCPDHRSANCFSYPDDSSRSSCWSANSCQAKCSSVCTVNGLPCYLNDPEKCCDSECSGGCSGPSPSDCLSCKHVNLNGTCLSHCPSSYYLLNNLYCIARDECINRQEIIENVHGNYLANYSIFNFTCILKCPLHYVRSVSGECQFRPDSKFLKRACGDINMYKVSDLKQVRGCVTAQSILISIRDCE

recombinant ligand domain of S. japonicum insulin receptor 2 (domain or fragment)
Kd [1]: 0.16 nM

recombinant ligand domain of S. japonicum insulin receptor 1 (domain or fragment)
Kd [1]: 0.226 nM

human insulin: human insulin (Sigma-Aldrich)
ADP hydrolysis, result in words [2]: no ADP binding ability was observed
reduction of Erk band intensity compared with worms co-stimulated with rSjILP and insulin ([3]; human insulin only (1 μM), 30 min, t (6) = 31.39, P = 0.001, experiment performed twice): 58%
Erk phosphorylation (44 kDa band), result in words ([3]; rSjILP 1 μM and/or human insulin 1 μM, 30 min in DMEM, anti-phospho-P44/42 MAPK antibody (1:1,000), experiment performed twice): The Erk band was also detectable; also recorded: more phosphorylated Erk was observed in worms stimulated with human insulin compared with worms cultured without insulin
reduction of Erk band intensity in worms without human insulin and rSjILP, compared with insulin only ([3]; value is the intensity of untreated worms relative to human insulin only (1 μM), 30 min, t (6) = 4.353, P = 0.049): 30%
binding of human insulin to SjIR1 and SjIR2, in words [4]: bind strongly with both SjIR1 and SjIR2
increase of glucose content of adult female S. japonicum ([5]; female worms): 2.9 fold
increase of glucose content of adult male S. japonicum ([5]; male worms): 1.7 fold

B1: recombinant Schistosoma japonicum insulin-like peptide, C-terminal fragment T31-S130 (domain or fragment)
chain: THSLPELQTDYTPINDYPIRMCGNEFLRHLKRVCAIRGIYTPLVRFKRSLEQYYDRILQRGKRFDDLCTLYTIYEPDQVVTKCCCIGCTRSYLEQFCNPS
modifications: biotin (NHS-PEO4-biotin kit) where it was immobilised on streptavidin biosensors
Kd [6]: 0.255 nM
